Experiment: Solubility of compound I in water
Format: physicochemical
Excerpt: The bitter taste of compound I can also be overcome by using flavouring agents (1.5) and/or sweetening agents (1.6).

Effect of an acidifying agent on solubility of compound I (presence of an acidifying agent (1.4), tablet dispersed with water): decreases the solubility
Solubility in water (water): practically insoluble
Compound: COc1ccccc1Oc1c(NS(=O)(=O)c2ccc(C(C)(C)C)cc2)nc(-c2ncccn2)nc1OCCO [compound I, 4-tert-butyl-N-[6-(2-hydroxy-ethoxy)-5-(2-methoxy-phenoxy)-2-(pyrimidin-2-yl)-pyrimidin-4-yl]-benzenesulfonamide]

Reference: patent publication US8309126B2, “Dispersible bosentan tablet” (Actelion Pharmaceuticals, Ltd., priority 2005, dated 2012)
